Where two headings read alike, the source gives them in different places.
Key:
[1] = test system: TNF-α production from human whole blood; experiment: Inhibition of TNF-α production from human whole blood (hWBA), LPS stimulated, ELISA; type: cell-based; details: Homo sapiens, TNF-α by ELISA, read-out: hWBA (IC50)
[2] = target: T1, purified catalytic domain of recombinant human TACE (rhTACEc) (Homo sapiens, UniProt P78536, N452Q/S266A); experiment: TACE kinetic assay: cleavage of internally quenched peptide substrate TNF-FRET 2 (Ki); type: biochemical; details: TNF-FRET 2 substrate
T1 construct: 6xHis (C); made in house; host or cells: baculovirus/Hi5 insect cells
T1 sequence (P78536 215-477 S266A/N452Q): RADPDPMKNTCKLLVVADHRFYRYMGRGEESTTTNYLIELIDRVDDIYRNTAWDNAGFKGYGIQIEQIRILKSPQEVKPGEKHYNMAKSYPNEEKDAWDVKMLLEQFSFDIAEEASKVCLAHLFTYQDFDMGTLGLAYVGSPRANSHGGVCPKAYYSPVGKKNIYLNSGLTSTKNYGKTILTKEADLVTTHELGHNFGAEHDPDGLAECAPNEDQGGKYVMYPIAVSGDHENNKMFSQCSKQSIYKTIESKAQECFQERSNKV

[3] = LPS-stimulated human whole blood
[4] = human whole blood diluted 1:1, LPS stimulated
[5] = 3.5 h, human whole blood diluted 1:1, LPS stimulated, 3.5 h

SMILES | IC50 [1, 3] [µM] | Ki ([2]; read-out: Ki) [µM] | IC50 [1, 4] [µM] | IC50 [1, 5] [µM] | Ki ([2]; Ki) [µM]
COc1ccc2c(c1)C(=O)N(C[C@@]1(c3cc4nc(N(CCN(C)C)c5cn[nH]c5)ccc4o3)NC(=O)NC1=O)C2 [Compound 1704] | 0.274 | 0.00086 |  |  | 
COc1ccc2c(c1)C(=O)N(C[C@@]1(c3cc4nc(N5C[C@@H](O)CC5=O)ccc4o3)NC(=O)NC1=O)C2 [Compound 1531] | 0.125 | 0.00065 |  |  | 
COc1ccc2c(c1)C(=O)N(C[C@@]1(c3cc4cc(C(N)=O)ccc4o3)NC(=O)NC1=O)C2 [Compound 2407] |  |  | 0.162 |  | 0.00012
COc1ccc2c(c1)C(=O)N(C[C@@]1(c3cc4nc(NC5CCNCC5)ccc4o3)NC(=O)NC1=O)C2 [Compound 1723] | 0.56 | 0.00266 |  |  | 
COc1ccc2c(c1)C(=O)N(C[C@@]1(c3cc4ncc(C(N)=O)cc4o3)NC(=O)NC1=O)C2 [Compound 1929] | 0.173 |  |  |  | 0.00037
COc1ccc2c(c1F)C(=O)N(C[C@@]1(c3cc4nc(N5CCCN(C)CC5)ccc4o3)NC(=O)NC1=O)C2 [Compound 1713] | 0.153 | 0.00076 |  |  | 
COc1ccc2c(c1)C(=O)N(C[C@@]1(c3cc4c(o3)CCN(C(N)=O)C4)NC(=O)NC1=O)C2 [Compound 318] | 0.646 | 0.00562 |  |  | 
COc1ccc2c(c1)C(=O)N(C[C@@]1(c3cc4nc(CO)ccc4o3)NC(=O)NC1=O)C2 [Compound 1945] | 0.728 | 0.00069 |  |  | 
COc1ccc2c(c1)C(=O)N(C[C@@]1(c3cc4cc(-c5cc(O)nc(N)n5)cnc4o3)NC(=O)NC1=O)C2 [Compound 302] | 0.151 | 0.00053 |  |  | 
COc1ccc2c(c1)C(=O)N(C[C@@]1(c3cc4nc(C(=O)NC5CC5)ccc4o3)NC(=O)NC1=O)C2 [Compound 1926] | 0.367 | 0.00012 |  |  | 
COc1ccc2c(c1)C(=O)N(C[C@@]1(c3cc4nc(Nc5ccc(-c6cn[nH]c6)cn5)ccc4o3)NC(=O)NC1=O)C2 [Compound 1732] | 0.333 | 0.00191 |  |  | 
COc1cc2c(cc1OC)C(=O)N(C[C@]1(c3cc4cnccc4o3)NC(=O)NC1=O)C2 [Compound 201] | 6.66 | 0.149 |  |  | 
COc1ccc2c(c1)C(=O)N(C[C@@]1(c3cc4nc(N(CCO)Cc5ccccn5)ccc4o3)NC(=O)NC1=O)C2 [Compound 1701] | 2.21 | 0.00249 |  |  | 
COc1ccc2c(c1)C(=O)N(C[C@@]1(c3cc4nc(-c5cc[nH]c5)ccc4o3)NC(=O)NC1=O)C2 [Compound 1900] | 0.459 | 0.00057 |  |  | 
COc1ccc2c(c1)C(=O)N(C[C@@]1(c3cc4cc(C(=O)NCCN(C)CCN)c(F)cc4o3)NC(=O)NC1=O)C2 [Compound 1279] |  | 0.001 |  | 0.504 | 
CCN1CCN(C(=NO)c2cnc3cc([C@]4(CN5Cc6ccc(OC)cc6C5=O)NC(=O)NC4=O)oc3c2)CC1 [Compound 2468] |  |  | 0.342 |  | 0.00144
COc1ccc2c(c1)C(=O)N(C[C@@]1(c3cc4cc(C(=O)NCCNC(C)C)c(F)cc4o3)NC(=O)NC1=O)C2 [Compound 1276] |  | 0.0012 |  | 0.251 | 
COc1ccc2c(c1F)C(=O)N(C[C@]1(C3=CC(c4ccccc4)N(C)O3)NC(=O)NC1=O)C2 (some centres unmarked) [Compound 1525] | ≥ 100 | 0.0032 |  |  | 
COc1ccc2c(c1)C(=O)N(C[C@@]1(c3cc4cc(C(=O)NCCN(C)CCNC(=O)OC(C)(C)C)c(F)cc4o3)NC(=O)NC1=O)C2 [Compound 1278] |  | 0.0018 |  | 3.26 | 
COc1ccc2c(c1F)C(=O)N(C[C@@]1(c3cc4nc(N(c5cn[nH]c5)C5CCN(C)CC5)ccc4o3)NC(=O)NC1=O)C2 [Compound 1717] | 0.183 | 0.00062 |  |  | 
O=C1NC(=O)C(CN2Cc3ccccc3C2=O)(c2ccc(Br)cc2)N1 (centres unmarked) [Compound 1296] |  | 0.007 |  | > 10 | 
COc1ccc2c(c1F)C(=O)N(C[C@@]1(c3cc4nc(-c5ccnc(N6CCNCC6)c5)ccc4o3)NC(=O)NC1=O)C2 [Compound 1719] | 0.148 | 0.00024 |  |  | 
COc1ccc2c(c1)C(=O)N(C[C@@]1(c3cc4nc(Nc5cn[nH]c5)ccc4o3)NC(=O)NC1=O)C2 [Compound 1729] | 0.211 | 0.00043 |  |  | 
COc1ccc2c(c1F)C(=O)N(C[C@@]1(c3cc4nc(N5CCCNCC5)ccc4o3)NC(=O)NC1=O)C2 [Compound 1712] | 0.189 | 0.00083 |  |  | 
CCNC(=O)Nc1ccc2oc([C@]3(CN4Cc5ccc(OC)cc5C4=O)NC(=O)NC3=O)cc2n1 [Compound 1939] | 0.671 | 0.00112 |  |  | 
COc1ccc2c(c1)C(=O)N(C[C@@]1(c3cc4nc(C(=O)NC5CCN(C)CC5)ccc4o3)NC(=O)NC1=O)C2 [Compound 1911] | 0.317 | 0.00132 |  |  | 
COc1ccc2c(c1)C(=O)N(C[C@@]1(c3cc4nc(-c5cccc(O)c5)ccc4o3)NC(=O)NC1=O)C2 [Compound 1902] | 0.998 | 0.00028 |  |  | 
COc1ccc2c(c1)C(=O)N(C[C@@]1(c3cc4ncc(CO)cc4o3)NC(=O)NC1=O)C2 [Compound 1941] | 0.609 | 0.00059 |  |  | 

Further lines, with some results ahead:

IC50 [1, 3] [µM] | Ki ([2]; read-out: Ki) [µM] | IC50 [1, 4] [µM] | IC50 [1, 5] [µM] | SMILES | Ki ([2]; Ki) [µM]
 | 0.00114 | 0.348 |  | COc1ccc2c(c1)C(=O)N(C[C@@]1(c3cc4ccc(C(=O)NCC5CCN(C)CC5)cc4o3)NC(=O)NC1=O)C2 [Compound 2411] | 
 | 0.00102 |  | 0.526 | COc1ccc2c(c1)C(=O)N(C[C@@]1(c3cc4cc(CNCC5CCNCC5)ccc4o3)NC(=O)NC1=O)C2 [Compound 2183] | 
 | 0.000701 |  | 0.343 | COc1ccc2c(c1)C(=O)N(C[C@@]1(c3cc4cc(NS(C)(=O)=O)ccc4o3)NC(=O)NC1=O)C2 [Compound 2222] | 
 | 0.00041 | 0.99 |  | COc1ccc2c(c1)C(=O)N(C[C@@]1(c3cc4ccc(C(=O)N(C)C)cc4o3)NC(=O)NC1=O)C2 [Compound 2414] | 
 | 0.00054 | 0.554 |  | CNC(=O)c1cnc(C)c2cc([C@]3(CN4Cc5ccc(OC)cc5C4=O)NC(=O)NC3=O)oc12 [Compound 2447] | 
 | 0.000637 |  | 1.89 | COc1ccc2c(c1)C(=O)N(C[C@@]1(c3cc4cc(-c5cnccc5OC)ccc4o3)NC(=O)NC1=O)C2 [Compound 2198] | 
 | 0.000566 |  | 3.39 | COc1ccc2c(c1)C(=O)N(C[C@@]1(c3cc4cc(-c5cccc(O)c5)ncc4o3)NC(=O)NC1=O)C2 [Compound 2242] | 
 | 0.000731 |  | 0.382 | COc1ccc2c(c1)C(=O)N(C[C@@]1(c3cc4nc(N5C(=O)CC[C@@H]5CO)ccc4o3)NC(=O)NC1=O)C2 [Compound 2157] | 
 | 0.00052 | 0.282 |  | COc1ccc2c(c1F)C(=O)N(C[C@@]1(c3cc4cc5c(c(F)c4o3)CNC5=O)NC(=O)NC1=O)C2 [Compound 2500] | 
 | 0.000604 |  | 0.859 | COc1ccc2c(c1F)C(=O)N(C[C@@]1(c3cc4cnc(Cl)cc4o3)NC(=O)NC1=O)C2 [Compound 2217] | 
 | 0.00049 | 1.23 |  | COc1ccc2c(c1)C(=O)N(C[C@@]1(c3cc4cc(CNC(=O)N(C)C)ccc4o3)NC(=O)NC1=O)C2 [Compound 2486] | 
 | 0.00051 | 0.992 |  | COc1ccc2c(c1)C(=O)N(C[C@@]1(c3cc4cc(C(N)=O)c(C)cc4o3)NC(=O)NC1=O)C2 [Compound 2425] | 
 | 0.00014 |  | 0.203 | COc1ccc2c(c1)C(=O)N(C[C@@]1(c3cc4nc(-c5c(C)n[nH]c5C)ccc4o3)NC(=O)NC1=O)C2 [Compound 2101] | 
 | 0.00877 |  | 1.44 | COc1ccc2c(c1)C(=O)N(C[C@@]1(c3cc4c(s3)CCN(C)C4)NC(=O)NC1=O)C2 [Compound 2265] | 
 | 0.00654 |  | ≥ 1 | COc1ccc2c(c1)C(=O)N(C[C@@]1(c3cc4c(o3)CCNC4)NC(=O)NC1=O)C2 [Compound 2262] | 
 | 0.000249 |  | 0.22 | CCC1(c2ccc3oc([C@]4(CN5Cc6ccc(OC)cc6C5=O)NC(=O)NC4=O)cc3c2)NC(=O)NC1=O (some centres unmarked) [Compound 2208] | 
 | 0.00036 | 2.08 |  | COc1ccc2c(c1)C(=O)N(C[C@@]1(c3cc4cc(C)c(S(N)(=O)=O)cc4o3)NC(=O)NC1=O)C2 [Compound 2479] | 
 | 0.000888 |  | 1.91 | COc1ccc2c(c1)C(=O)N(C[C@@]1(c3cc4nc(Nc5ccccn5)ccc4o3)NC(=O)NC1=O)C2 [Compound 2128] | 
 | 0.000635 |  | 0.46 | COc1ccc2c(c1)C(=O)N(C[C@@]1(c3cc4nc(Nc5c(C)noc5C)ccc4o3)NC(=O)NC1=O)C2 [Compound 2133] | 
 | 0.00067 | 0.35 |  | COc1ccc2c(c1)C(=O)N(C[C@@]1(c3cc4cc(C(=NO)N5CCCN(C)CC5)ccc4o3)NC(=O)NC1=O)C2 [Compound 2452] | 
 | 0.000562 |  | 0.222 | COc1ccc2c(c1)C(=O)N(C[C@@]1(c3cc4cc(-c5cc(O)nn5C)cnc4o3)NC(=O)NC1=O)C2 [Compound 2276] | 
 | 0.00079 | 0.332 |  | CCN(CC)CCNC(=O)c1ccc2cc([C@]3(CN4Cc5ccc(OC)cc5C4=O)NC(=O)NC3=O)oc2c1 [Compound 2419] | 
 | 0.00315 | 1.71 |  | COc1ccc2c(c1)C(=O)N(C[C@@]1(c3ccc(C(=O)O)cc3)NC(=O)NC1=O)C2 [Compound 2404] | 
 | 0.000976 |  | 0.551 | COc1ccc2c(c1)C(=O)N(C[C@@]1(c3cc4nc(N5CCN(c6ccncc6)CC5)ccc4o3)NC(=O)NC1=O)C2 [Compound 2143] | 
 | 0.000355 |  | 0.347 | COc1ccc2c(c1)C(=O)N(C[C@@]1(c3cc4cc(-c5nnc[nH]5)ccc4o3)NC(=O)NC1=O)C2 [Compound 2184] | 
 | 0.00062 |  | 1.4 | COc1ccc2c(c1)C(=O)N(C[C@@]1(c3cc4nc(Nc5nccs5)ccc4o3)NC(=O)NC1=O)C2 [Compound 2113] | 
 | 0.00072 | 10 |  | COc1ccc2c(c1)C(=O)N(C[C@@]1(c3cc4c(-c5cccc(C#N)c5)nccc4o3)NC(=O)NC1=O)C2 [Compound 2430] | 
